The source of these data is publication PMC9916658, “Design and Synthesis of New Quinazolin-4-one Derivatives with Negative mGlu7 Receptor Modulation Activity and Antipsychotic-Like Properties” (International Journal of Molecular Sciences, 2023).

The % inhibition is the relative decrease from the control value, in per cent. As usually defined, the IC50 is the concentration that gives 50% inhibition. One may read the kinetic solubility as solubility judged after dilution from a stock solution rather than from solid.

The target of series [1] is T1, recombinant human mGlu7 receptor (FAST-0154C) (Homo sapiens, UniProt Q14831).
T1 construct: host or cells: CHO-K1
T1 sequence (Q14831 35-915): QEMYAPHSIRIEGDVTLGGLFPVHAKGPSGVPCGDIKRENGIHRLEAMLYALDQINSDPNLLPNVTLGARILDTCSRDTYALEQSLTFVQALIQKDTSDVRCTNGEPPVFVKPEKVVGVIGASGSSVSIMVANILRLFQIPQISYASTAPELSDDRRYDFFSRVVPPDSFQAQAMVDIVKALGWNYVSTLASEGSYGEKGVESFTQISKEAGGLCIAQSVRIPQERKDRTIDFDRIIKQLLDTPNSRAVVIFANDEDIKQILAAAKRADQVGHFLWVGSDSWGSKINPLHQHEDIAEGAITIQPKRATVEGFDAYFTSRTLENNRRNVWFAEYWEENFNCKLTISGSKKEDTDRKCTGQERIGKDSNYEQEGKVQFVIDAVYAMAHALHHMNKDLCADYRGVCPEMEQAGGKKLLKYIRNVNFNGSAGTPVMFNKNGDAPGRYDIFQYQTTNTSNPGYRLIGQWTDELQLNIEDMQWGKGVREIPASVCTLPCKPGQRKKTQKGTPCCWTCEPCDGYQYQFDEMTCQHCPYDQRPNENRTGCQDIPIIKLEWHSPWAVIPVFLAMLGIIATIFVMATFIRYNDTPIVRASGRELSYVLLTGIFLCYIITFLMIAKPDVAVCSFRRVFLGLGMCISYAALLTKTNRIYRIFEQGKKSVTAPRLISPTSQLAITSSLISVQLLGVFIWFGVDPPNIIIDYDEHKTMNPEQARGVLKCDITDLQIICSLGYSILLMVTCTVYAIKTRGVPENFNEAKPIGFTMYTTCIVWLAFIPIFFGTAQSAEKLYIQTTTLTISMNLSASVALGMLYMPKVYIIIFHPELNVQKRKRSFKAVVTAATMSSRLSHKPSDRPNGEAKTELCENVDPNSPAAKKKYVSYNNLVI
In words: NAM mGlu7 activity on CHO-K1 cell line, cAMP HTRF (EuroscreenFast protocol). Type of series: cell-based. Particulars: CHO-K1 human mGlu7, agonist L-AP4 at EC80. The text has this: with inducible expression of human mGlu7 receptor. […]
2.2. NAM mGlu7 receptor activity on CHO-K1 cell line according to EuroscreenFast protocol
ALX-065 and ALX-171 were testing for negative allosteric modulator (NAM) activity on alternative […]
mGlu7 cell line (recombinant human mGlu7 receptor (FAST-0154C) using cAMP HTRF functional assay) […]
by EuroscreenFast company according to the provided methodology.
Receptor Accession Cell line Reference Reference
Number agonist antagonist
Compounds were tested for NAM activity at the human mGlu7 receptor (FAST-0154C) in dose […]
response and in duplicates (range concentration: 1 nM – 25 µM) […]
cAMP HTRF assay for Gi coupled receptor
CHO-K1 cells expressing recombinant human mGlu7 receptor (FAST-0154C) grown prior to the test […]
inmedia without antibiotic are detached by gentle flushing with PBS-EDTA (5 mM EDTA), recovered […]
by centrifugation and resuspended in assay buffer (KRH: 5 mM KCl, 1.25 mM MgSO4, 124 mM NaCl, […]
25 mM HEPES, 13.3 mM Glucose, 1.25 mM KH2PO4, 1.45 mM CaCl2, 0.5 g/L BSA, supplemented with 1 […]
Dose response curves are performed in parallel with the reference compounds.
For antagonist/NAM test (96 well): 12 µl of cells are mixed with 6 µl of the test compound at increasing concentrations and then incubated 10 min. Thereafter 6 µl of the mix of the forskolin and reference agonist is added at a final concentration corresponding to the historical EC80. The plates are then incubated for 30 min at room temperature. After addition of the lysis buffer and 1 hour incubation, cAMP concentrations are estimated, according to the manufacturer specification, with the HTRF kit. […]
A general note: Time-resolved FRET reads energy transfer from a long-lived donor to a nearby acceptor.

Series [2] in a line: Pharmacokinetics and brain uptake in mice after i.p. administration. As to conditions: mouse Albino Swiss, 10 mg/kg i.p.; for AUC(0-t): ip. Type of series: in vivo, mouse (Albino Swiss). The procedure: Compounds were administered to mice at a dose of 10 mg/kg i.p. Plasma and tissue samples were collected at 0.25, 0.50, 1.0, 2.0, 4.0, 6.0, and 24 h. Plasma and tissue samples from all drug-treated animals were thawed at room temperature prior to use. The standard protocol for sample preparation was used: 200 μL of acetonitrile was added to the Eppendorf tubes with 50 μL of studied plasma samples or tissue homogenate. Samples were mixed for 5 min on a mixer at 25 °C and 1400 rpm. The tubes were then centrifuged at 2000× g for 15 min at 4 °C. A total of 180 μL of each supernatant was transferred to a plate well. Finally, each sample was injected into the LC–MS column. Calibration curve serial dilution method: Plasma was spiked with a standard at different concentrations. Acetonitrile was added. After mixing and centrifugation, the supernatant was collected.
Chromatographic conditions. Plasma and tissue samples from all drug-treated animals at selected time points were analyzed using a previously developed nonvalidated LC–MS/MS method. […] The LC–MS analysis was carried out on a Bruker amaZon SL mass spectrometer using the positive/negative ion ESI mode. Chromatographic separation was achieved on an Ascentis Express C18 column (5 cm × 2.1 mm, 2.7 μM, Supelco Technologies) at room temperature with a thermostatted column oven. A gradient elution of eluents A (acetonitrile (LiChrosolv, Reag. Ph Eur) + 0.1% formic acid (Sigma Aldrich, 98–100%)) and B (water + 0.1% formic acid) were used for separation. The flow rate was set at 1 mL/min. The injection volume was 20 μL, and the time of injection was 4 min.
Mass spectrometric conditions. An ion trap mass spectrometer (Bruker amaZon SL, Bruker, Bremen, Germany) was equipped with an electrospray source operating in the positive/negative ion mode. Data were collected and processed using Bruker Quant Analysis (Bruker, Bremen, Germany) software. A quantification of the analytes was performed in the SIM mode.

Series [3] can be described thus: Kinetic solubility assay in HBSS buffer. Particulars: aqueous buffer, kinetic from dmso stock; Hanks-HEPES (HBSS buffer), pH 7.4; read-out: KS (kinetic solubility). It counts as physicochemical. The procedure: The kinetic solubility assay was performed to determine the solubility of the compounds in the in vitro assay conditions. The assay investigated the solubility based on the precipitation process in the HBSS buffer. For the preparation of the assay buffer, the following compounds were dissolved in 800 mL purified water: • − 130 mM sodium chloride, NaCl (7.600 g); • − 5.4 mM potassium chloride, KCl (0.403 g); • − 0.8 mM magnesium sulfate, MgSO4 × 7H2O (0.197 g); • − 0.9 mM sodium phosphate monobasic, NaH2PO4 × 2H2O (0.140 g); • − 25 mM D-glucose (4.500 g); • − 20 mM HEPES sodium salt (5.210 g).
The buffer was adjusted to pH 7.4, and the following compound was added to the mixture: • − 1.8 mM calcium chloride, CaCl2 × 2H2O (0.265 g).
The total volume was adjusted to 1000 mL.
The investigated compounds were diluted (in triplicate) with the HBSS buffer at pH 7.4 to a final concentration of 500 μM.
The mixture was shaken on a filter plate at 500 rpm for 1.5 h at RT. After incubation, the filter plate was placed inside a vacuum manifold and filtrated. Samples were collected and the concentration of the filtrate was determined spectrophotometrically by measuring the UV–VIS absorption spectrum. Concentrations were calculated based on equations resulting from the calibration curves (in duplicates, 8 calibration points, dilution Factor ×2, 500 µM → 3.91 µM, including blank sample).

Series [4] can be described thus: Metabolic stability in mouse microsomal fraction. It counts as in vitro ADME. As to conditions: 1 µM, mouse microsomes 0.3 mg/mL, NADPH-regenerating system. The procedure: A metabolic stability assay was performed using a mouse microsomal fraction (phase I of metabolism) obtained from XenoTech (Kansas City, MO, USA). Compounds for metabolic stability testing were prepared as 10 mM stock solutions in DMSO. Compounds were incubated in triplicate at a 1 µM initial concentration with the microsomal fraction in the presence of NRS (NADPH-regenerating system, 1.3 mM). The final microsomal incubation (0.3 mg/mL) contained the components mentioned below in a pH 7.4 phosphate buffer. Control incubations were conducted without cofactors. The reference compound verapamil was used as a positive control. Incubations were carried out for 1 h on 96-well plates using a heated (+37 °C) orbital shaker (350 rpm). After incubation, the reaction was quenched through the addition of cold acetonitrile. The plate containing the samples was centrifuged at 2000 rpm for 15 min at 4 °C. The supernatants were analyzed using LC–MS.
The HPLC–MS consisted of a Dionex, Ultimate 3000 HPLC, and a Bruker Daltonics amaZon SL mass spectrometer (ESI-IT). The conditions were as follows: Column HPLC Ascentis Express C18 (5 cm × 2.1 mm, 2.7 µm) and an injection volume of 20 µL. An acetonitrile gradient was used with 0.1% formic acid in water at a constant flow rate of 1 mL/min. The programming was as follows: 0–0.5 min 5% ACN, 0.5–3.0 increase of 5–95%, 3.0–3.3 remaining at 95% ACN, 3.3–3.4 min decrease of 95–5% ACN, and 3.4–4.0 min 5% ACN. Samples were analyzed in a single-ion monitoring scan mode in positive mode. The conditions of the main parameters were as follows: a trap drive of 48.2, capillary exit voltage of 140.0 V, dry temperature (set) of 300 °C, nebulizer pressure (set) of 40.00 psi, dry gas flow (set) of 9.00 L/min HV capillary voltage of −4500 V, HV end-plate offset voltage of −500 V.
The percent loss of compounds was calculated through the normalization of the peak area against time 0, where the peak area at T0 was 100%. The elimination rate constant (h) was determined from the plot of ln (percent loss of compound) as a time function and equal to the minor value of the linear curve slope.

In series [5] the test system is animal models of schizophrenia. Particulars: cited from earlier work.

≈ marks a conversion by molar mass, not a printed value. Where two headings read alike, the source gives them in different places.

As for `COc1ccc(-c2cc3onc(-c4ccncc4)c3c(=O)n2C)cc1` [MMPIP, reference compound], the “% inhibition at maximal concentration” value in series [1] (range 1 nM – 25 µM) is on record as 100%. Moreover, the half-inhibitory concentration (IC50) in series [1] (read-out: IC50 (CHO-K1, Figure S4)) turned out to be 270 nM. For the same molecule, the AUC(0-t) is 8.98 µM·h in series [2] (brain, read-out: AUC0-t, brain) and 13.5 µM·h in series [2] (plasma, read-out: AUC0-t, plasma). For the same molecule, in series [2] (brain), the “Cmax, brain” value is 5.42 µM/L. The “Tmax, plasma” value in series [2] (plasma) stood at 15 min. Moreover, the kinetic solubility at 1.5 h in series [3] was determined as 5.6 µM (≈ 1.87 µg/mL). Further, in series [4], the “MML (metabolic stability liver microsome mouse)” value is recorded as 49.78 % remaining after 60 min. In addition, the “MK-801-induced disruptions in social interaction” value in series [5] is on record as “not observed”. For the same molecule, the “prepulse inhibition (PPI)” value in series [5] is “not observed”. In addition, in series [5] (mGlu7 NAMs), the “activity in animal models of schizophrenia” value was “antipsychotic activity”.
